Assay results: PubChem BioAssay (NCI)
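All cell lines were grown in 96-well plates and treated with compound for 48 hours. GI50 is the concentration that inhibits growth by half. Definition used: TGI = concentration required for complete inhibition of growth.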

How the values were obtained:
Assay in all cases: NCI tumour cell line growth inhibition, 48 h
NCI-H522 lung = test system: NCI-H522 lung
RXF 393 renal = test system: RXF 393 renal
LOX IMVI melanoma = test system: LOX IMVI melanoma
HL-60(TB) leukemia = test system: HL-60(TB) leukemia
OVCAR-3 ovarian = test system: OVCAR-3 ovarian
HT29 colon = test system: HT29 colon
SW-620 colon = test system: SW-620 colon
HS 578T breast = test system: HS 578T breast
SK-MEL-28 melanoma = test system: SK-MEL-28 melanoma
IGROV1 ovarian = test system: IGROV1 ovarian

Row | Structure (SMILES) | GI50 (NCI-H522 lung) [µM] | TGI (NCI-H522 lung) [µM] | GI50 (RXF 393 renal) [µM] | TGI (RXF 393 renal) [µM] | GI50 (LOX IMVI melanoma) [µM] | TGI (LOX IMVI melanoma) [µM] | GI50 (HL-60(TB) leukemia) [µM] | TGI (HL-60(TB) leukemia) [µM] | GI50 (OVCAR-3 ovarian) [µM] | GI50 (HT29 colon) [µM] | TGI (HT29 colon) [µM] | GI50 (SW-620 colon) [µM] | TGI (SW-620 colon) [µM] | GI50 (HS 578T breast) [µM] | TGI (HS 578T breast) [µM] | GI50 (SK-MEL-28 melanoma) [µM] | TGI (SK-MEL-28 melanoma) [µM] | TGI (OVCAR-3 ovarian) [µM] | GI50 (IGROV1 ovarian) [µM] | TGI (IGROV1 ovarian) [µM]
1 | CN(C)C(=O)c1cc2cnc(Nc3ccc(-c4csc5c(=O)cc(N6CCOCC6)oc45)cc3)nc2n1C1CCCC1 | 0.247 | 1.3 | 0.163 | 0.388 | 0.112 | 0.353 | 0.0877 | 0.698 | 0.228 | 0.27 | > 100 | 0.153 | 1 | 0.134 | 0.648 | 0.207 | 0.869 | – | – | –
2 | COc1cc(-c2nc3sc4c(c3c(=O)[nH]2)CCCCCC4)cc(OC)c1OC | 0.887 | 9.46 | 0.636 | 2.55 | 1.42 | > 33.2 | 1.36 | 13 | 0.922 | – | – | 1.5 | > 33.2 | 0.922 | 9.76 | 1.95 | > 33.2 | 8.94 | 4.58 | > 33.2
3 | O=C1c2c(n(Cc3ccccc3)c(=O)n2Cc2ccccc2)C(=O)N1Cc1ccccc1 | – | > 100 | – | > 100 | – | > 100 | – | > 100 | – | – | > 100 | – | > 100 | – | – | – | > 100 | > 100 | – | > 100
4 | O=c1cc(-c2ccccc2)[nH]n1-c1nc2ccccc2[nH]1 | 3.65 | 17.6 | 3.94 | 34.8 | 4.61 | 28.1 | 4.52 | 29.1 | 4.46 | – | – | 4.48 | > 100 | 7.47 | > 100 | 3.61 | > 100 | > 100 | 6.81 | > 100
5 | CN1CC(C(=O)C2C(=O)c3ccccc3C2=O)C(=O)C(=O)C(C(=O)C2C(=O)c3ccccc3C2=O)C1 (stereo not drawn) | – | > 100 | – | – | – | > 100 | – | > 100 | – | – | > 100 | – | > 100 | – | – | – | > 100 | > 10 | – | > 100
6 | CC#CC1/C(=C\C(=O)OC)CCCC1O (stereo not drawn) | – | > 100 | – | > 100 | – | – | – | > 100 | – | – | > 100 | – | > 100 | – | – | – | > 100 | > 100 | – | –
7 | CCN(CCCl)CCCNc1c2ccccc2nc2ccc(OC)cc12 | 103 | – | 601 | – | – | 0.669 | 175 | – | 119 | 82.3 | – | – | 1.39 | – | – | 665 | – | – | – | 1510
8 | O=C(CC(=O)N1N=C(N2c3ccccc3Sc3ccccc32)CC1c1ccccc1)Nc1ccc(Cl)cc1 (stereo not drawn) | – | – | – | > 100 | – | > 100 | – | – | – | – | > 100 | – | > 100 | – | – | – | > 100 | > 100 | – | > 100
9 | CCOC(=O)C1SC(=Nc2ccc(Cl)c(Cl)c2)N=C1C (stereo not drawn) | – | > 100 | – | 52.3 | – | 63.9 | – | 59.7 | – | – | 66.8 | – | > 100 | – | – | – | > 100 | 60.6 | – | > 100
10 | CC1=CCC23C(C1)OC(Br)(C=CC2(C)O)C3(C)C (stereo not drawn) | – | – | – | – | – | > 100 | – | > 100 | – | – | > 100 | – | > 100 | – | – | – | > 100 | – | – | > 100
